US20170231177A1, “REGENERATION AND TRANSFORMATION OF COSMOS BIPINNATUS PLANTLETS” (Novin Giti Gene R&D Center (N.G.G), priority 2015, published 2017)

Legend:
[1] = tested on: cotyledon explants of Cosmos Bipinnatus; assay: Regeneration frequency of cotyledon explants on regeneration media; format: cell-based
Procedure: (§1) In this example, direct regeneration of Cosmos Bipinnatus plantlets was carried out with the following steps according to one or more aspects of the present disclosure. First, Cosmos Bipinnatus seeds were sterilized. The sterilization of Cosmos Bipinnatus seeds was carried out by soaking the seeds in an ethanol solution with a concentration of about 70% volume/volume for about 1 min followed by soaking the seeds in a hypochlorite sodium solution with a concentration of about 2% weight/volume for about 10 min, and then the seeds were rinsed three times with sterile distilled water.
(§2) The sterilized Cosmos Bipinnatus seeds were then germinated in order to obtain cotyledons of Cosmos Bipinnatus plant. Seed germination was carried out by putting the sterilized Cosmos Bipinnatus seeds under a sterile condition in an agar-solidified MS medium. Then, the sterilized Cosmos Bipinnatus seeds in the agar-solidified MS medium were incubated in a growth chamber with photoperiods of 16 hours in light and 8 hours in dark under fluorescent illuminations (60 μmol m^2 s^1) at 22° C.±1° C. for a period of 3 days. The cotyledons of Cosmos Bipinnatus plant that grew from germinated seeds after 3 days were cut and used as explants in the following steps of the direct regeneration process.
The obtained explants were then cultured onto a regeneration medium for regenerating cotyledon explants of Cosmos Bipinnatus. To this end, 10 explants, with their adaxial side down, were cultured onto the regeneration medium in a Petri dish for regeneration in cotyledons to occur. The regeneration in cotyledons was assessed by examining shoot-inducing ability in the presence of different regeneration medium compositions. The different regeneration medium compositions included respectively different concentrations of plant growth regulators and ethylene inhibitors. The regeneration media contained benzyl adenine (BA), silver nitrate, and adenine sulfate with different concentrations. […]

[2] = tested on: cotyledon explants of Cosmos Bipinnatus; assay: Shoot number of regenerated cotyledon explants on regeneration media; format: cell-based
Procedure: as §1, §2
The obtained explants were then cultured onto a regeneration medium for regenerating cotyledon explants of Cosmos Bipinnatus. To this end, 10 explants, with their adaxial side down, were cultured onto the regeneration medium in a Petri dish for regeneration in cotyledons to occur. The regeneration in cotyledons was assessed by examining shoot-inducing ability in the presence of different regeneration medium compositions. The different regeneration medium compositions included respectively different concentrations of plant growth regulators and ethylene inhibitors. The regeneration media contained benzyl adenine (BA), silver nitrate, and adenine sulfate with different concentrations. An MS medium supplemented with 3% sucrose was used as a basal medium and the pH was adjusted to about 5.8 using a 1 N solution of NaOH.
As used herein, “shoot number” is the average number of shoots that are generated on the 10 explants used in the experiments for three replications.

[3] = BA 2.5, AgNO3 0, adenine sulfate 0 mg/l in MS medium
[4] = BA 5, AgNO3 0, adenine sulfate 0 mg/l in MS medium
[5] = BA 7.5, AgNO3 0, adenine sulfate 0 mg/l in MS medium

## c1ccc(CNc2ncnc3nc[nH]c23)cc1 [BA, benzyladenine]
[1]; [3]
  Regeneration frequency: 6.25 ± 0.00%
[1]; [4]
  Regeneration frequency: 6.25 ± 1.70%
[1]; [5]
  Regeneration frequency: 5.25 ± 2.06%
[2]; [3]
  Shoot number: 1.34 ± 0.33
[2]; [4]
  Shoot number: 0.34 ± 0.28
[2]; [5]
  Shoot number: 0.67 ± 0.33

## Nc1ncnc2nc[nH]c12.O=S(=O)(O)O [Adenine sulfate, adenine sulfate]
[2]; BA 0, AgNO3 0, adenine sulfate 10 mg/l in MS medium
  Shoot number: 0.00 ± 0.00
[2]; BA 0, AgNO3 0, adenine sulfate 20 mg/l in MS medium
  Shoot number: 0.00 ± 0.00
[2]; BA 0, AgNO3 0, adenine sulfate 40 mg/l in MS medium
  Shoot number: 0.00 ± 0.00
[2]; BA 0, AgNO3 0, adenine sulfate 80 mg/l in MS medium
  Shoot number: 0.00 ± 0.00

## O=[N+]([O-])[O-].[Ag+] [AgNO3, silver nitrate]
[2]; BA 0, AgNO3 2.5, adenine sulfate 0 mg/l in MS medium
  Shoot number: 0.00 ± 0.00
[2]; BA 0, AgNO3 5, adenine sulfate 0 mg/l in MS medium
  Shoot number: 0.00 ± 0.00
[2]; BA 0, AgNO3 7.5, adenine sulfate 0 mg/l in MS medium
  Shoot number: 0.00 ± 0.00
